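Exposure lasted 48 hours, with cells grown in 96-well plates and compounds tested at five concentrations. TGI is the concentration that stops growth completely.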
Tests used:
Test in all cases: growth of human tumour cells (NCI), 48 h
OVCAR-3 ovarian = test system: OVCAR-3 ovarian
HOP-62 NSCLC = test system: HOP-62 NSCLC
KM12 colon = test system: KM12 colon
EKVX NSCLC = test system: EKVX NSCLC
MDA-MB-231 breast = test system: MDA-MB-231 breast
NCI-H23 lung = test system: NCI-H23 lung
LOX IMVI melanoma = test system: LOX IMVI melanoma
SN12C renal = test system: SN12C renal
SW-620 colon = test system: SW-620 colon
ACHN renal = test system: ACHN renal
SK-MEL-5 melanoma = test system: SK-MEL-5 melanoma
HT29 colon = test system: HT29 colon
SF-268 CNS = test system: SF-268 CNS
U251 CNS = test system: U251 CNS
MDA-N = test system: MDA-N
MCF7 breast = test system: MCF7 breast
COLO 205 colon = test system: COLO 205 colon
OVCAR-8 ovarian = test system: OVCAR-8 ovarian
NCI/ADR-RES ovarian = test system: NCI/ADR-RES ovarian
DU-145 prostate = test system: DU-145 prostate
HCC-2998 colon = test system: HCC-2998 colon
SK-OV-3 ovarian = test system: SK-OV-3 ovarian
A549 NSCLC = test system: A549 NSCLC
OVCAR-5 ovarian = test system: OVCAR-5 ovarian
SNB-75 CNS = test system: SNB-75 CNS
SNB-19 CNS = test system: SNB-19 CNS
HS 578T breast = test system: HS 578T breast
CCRF-CEM leukemia = test system: CCRF-CEM leukemia
MALME-3M melanoma = test system: MALME-3M melanoma
CAKI-1 renal = test system: CAKI-1 renal
SK-MEL-28 melanoma = test system: SK-MEL-28 melanoma
K-562 leukemia = test system: K-562 leukemia
SR leukemia = test system: SR leukemia
SF-539 CNS = test system: SF-539 CNS
A498 renal = test system: A498 renal
HCT-15 colon = test system: HCT-15 colon
UACC-62 melanoma = test system: UACC-62 melanoma
NCI-H522 lung = test system: NCI-H522 lung
UO-31 renal = test system: UO-31 renal
MOLT-4 leukemia = test system: MOLT-4 leukemia
HCT-116 colon = test system: HCT-116 colon
HL-60(TB) leukemia = test system: HL-60(TB) leukemia
MDA-MB-435 = test system: MDA-MB-435
IGROV1 ovarian = test system: IGROV1 ovarian
SK-MEL-2 melanoma = test system: SK-MEL-2 melanoma
BT-549 breast = test system: BT-549 breast
UACC-257 melanoma = test system: UACC-257 melanoma
PC-3 prostate = test system: PC-3 prostate
HOP-92 NSCLC = test system: HOP-92 NSCLC
TK-10 renal = test system: TK-10 renal
NCI-H460 lung = test system: NCI-H460 lung
M14 melanoma = test system: M14 melanoma
NCI-H226 lung = test system: NCI-H226 lung
SF-295 CNS = test system: SF-295 CNS
T-47D breast = test system: T-47D breast
OVCAR-4 ovarian = test system: OVCAR-4 ovarian
786-0 renal = test system: 786-0 renal
RPMI-8226 leukemia = test system: RPMI-8226 leukemia

For `CCCNc1[nH]c(C(=O)c2ccccc2)c(N)c1C(=S)Nc1ccccc1`, the TGI (OVCAR-3 ovarian) was greater than 100 µM, the TGI (HOP-62 NSCLC) was greater than 100 µM and the TGI (KM12 colon) was greater than 100 µM. It also gave a TGI (EKVX NSCLC) greater than 100 µM, a TGI (MDA-MB-231 breast) greater than 100 µM and a TGI (NCI-H23 lung) greater than 100 µM. It also gave a TGI (LOX IMVI melanoma) greater than 100 µM, a TGI (SN12C renal) greater than 100 µM and a TGI (SW-620 colon) greater than 100 µM. The TGI (ACHN renal) was greater than 100 µM, the TGI (SK-MEL-5 melanoma) was greater than 100 µM and the TGI (HT29 colon) was greater than 100 µM. The TGI (SF-268 CNS) was greater than 100 µM, the TGI (U251 CNS) was greater than 100 µM and the TGI (MDA-N) was greater than 100 µM. It also gave a TGI (MCF7 breast) greater than 100 µM, a TGI (COLO 205 colon) greater than 100 µM and a TGI (OVCAR-8 ovarian) greater than 100 µM. The TGI (NCI/ADR-RES ovarian) was greater than 100 µM, the TGI (DU-145 prostate) was greater than 100 µM and the TGI (HCC-2998 colon) was greater than 100 µM. For the same compound, the TGI (SK-OV-3 ovarian) was greater than 100 µM, the TGI (A549 NSCLC) was greater than 100 µM and the TGI (OVCAR-5 ovarian) was greater than 100 µM. It also gave a TGI (SNB-75 CNS) greater than 100 µM, a TGI (SNB-19 CNS) greater than 100 µM and a TGI (HS 578T breast) greater than 100 µM. The TGI (CCRF-CEM leukemia) was greater than 100 µM, the TGI (MALME-3M melanoma) was greater than 100 µM and the TGI (CAKI-1 renal) was greater than 100 µM. The TGI (SK-MEL-28 melanoma) was greater than 100 µM, the TGI (K-562 leukemia) was greater than 100 µM and the TGI (SR leukemia) was greater than 100 µM. It also gave a TGI (SF-539 CNS) greater than 100 µM, a TGI (A498 renal) greater than 100 µM and a TGI (HCT-15 colon) greater than 100 µM. The TGI (UACC-62 melanoma) was greater than 100 µM, the TGI (NCI-H522 lung) was greater than 100 µM and the TGI (UO-31 renal) was greater than 100 µM. For the same compound, the TGI (MOLT-4 leukemia) was greater than 100 µM, the TGI (HCT-116 colon) was greater than 100 µM and the TGI (HL-60(TB) leukemia) was greater than 100 µM. The TGI (MDA-MB-435) was greater than 100 µM, the TGI (IGROV1 ovarian) was greater than 100 µM and the TGI (SK-MEL-2 melanoma) was greater than 100 µM. The TGI (BT-549 breast) was greater than 100 µM, the TGI (UACC-257 melanoma) was greater than 100 µM and the TGI (PC-3 prostate) was greater than 100 µM. It also gave a TGI (HOP-92 NSCLC) greater than 100 µM, a TGI (TK-10 renal) greater than 100 µM and a TGI (NCI-H460 lung) greater than 100 µM. For the same compound, the TGI (M14 melanoma) was greater than 100 µM, the TGI (NCI-H226 lung) was greater than 100 µM and the TGI (SF-295 CNS) was greater than 100 µM. It also gave a TGI (T-47D breast) greater than 100 µM, a TGI (OVCAR-4 ovarian) greater than 100 µM and a TGI (786-0 renal) greater than 100 µM.

With `COC(=O)C#Cc1cccc(OC)c1OC` the TGI (OVCAR-3 ovarian) was greater than 100 µM, the TGI (HOP-62 NSCLC) was greater than 100 µM and the TGI (KM12 colon) was greater than 100 µM. For the same compound, the TGI (EKVX NSCLC) was 54.4 µM, the TGI (MDA-MB-231 breast) was greater than 100 µM and the TGI (NCI-H23 lung) was greater than 100 µM. For the same compound, the TGI (LOX IMVI melanoma) was greater than 100 µM, the TGI (SN12C renal) was greater than 100 µM and the TGI (SW-620 colon) was greater than 100 µM. The TGI (ACHN renal) was greater than 100 µM, the TGI (SK-MEL-5 melanoma) was greater than 100 µM and the TGI (HT29 colon) was 79.2 µM. The TGI (U251 CNS) was greater than 100 µM, the TGI (MDA-N) was greater than 100 µM and the TGI (MCF7 breast) was 55.6 µM. It also gave a TGI (COLO 205 colon) of 65.7 µM, a TGI (OVCAR-8 ovarian) greater than 100 µM and a TGI (NCI/ADR-RES ovarian) of 99 µM. For the same compound, the TGI (DU-145 prostate) was greater than 100 µM, the TGI (HCC-2998 colon) was 48.2 µM and the TGI (SK-OV-3 ovarian) was greater than 100 µM. For the same compound, the TGI (A549 NSCLC) was greater than 100 µM, the TGI (OVCAR-5 ovarian) was 51.3 µM and the TGI (RPMI-8226 leukemia) was greater than 100 µM. The TGI (SNB-19 CNS) was greater than 100 µM, the TGI (HS 578T breast) was greater than 100 µM and the TGI (CCRF-CEM leukemia) was 67.9 µM. The TGI (MALME-3M melanoma) was greater than 100 µM, the TGI (CAKI-1 renal) was 68.3 µM and the TGI (SK-MEL-28 melanoma) was greater than 100 µM. For the same compound, the TGI (K-562 leukemia) was 55.1 µM, the TGI (SR leukemia) was 44.8 µM and the TGI (SF-539 CNS) was 46.4 µM. For the same compound, the TGI (A498 renal) was greater than 100 µM, the TGI (HCT-15 colon) was greater than 100 µM and the TGI (UACC-62 melanoma) was greater than 100 µM. It also gave a TGI (UO-31 renal) of 37.9 µM, a TGI (MOLT-4 leukemia) of 35.4 µM and a TGI (HCT-116 colon) greater than 100 µM. For the same compound, the TGI (HL-60(TB) leukemia) was greater than 100 µM, the TGI (MDA-MB-435) was greater than 100 µM and the TGI (BT-549 breast) was greater than 100 µM. For the same compound, the TGI (UACC-257 melanoma) was greater than 100 µM, the TGI (PC-3 prostate) was greater than 100 µM and the TGI (HOP-92 NSCLC) was 66.1 µM. It also gave a TGI (TK-10 renal) greater than 100 µM, a TGI (NCI-H460 lung) greater than 100 µM and a TGI (M14 melanoma) greater than 100 µM. For the same compound, the TGI (NCI-H226 lung) was greater than 100 µM, the TGI (SF-295 CNS) was greater than 100 µM and the TGI (T-47D breast) was greater than 100 µM. For the same compound, the TGI (OVCAR-4 ovarian) was 36.2 µM and the TGI (786-0 renal) was greater than 100 µM.

For `COC(=O)CCc1ccc2c(c1)[C@H](C(=O)OC)[C@@H](c1ccc(O)cc1)O2`, the TGI (OVCAR-3 ovarian) was greater than 100 µM, the TGI (HOP-62 NSCLC) was greater than 100 µM and the TGI (KM12 colon) was greater than 100 µM. For the same compound, the TGI (EKVX NSCLC) was greater than 100 µM, the TGI (MDA-MB-231 breast) was greater than 100 µM and the TGI (NCI-H23 lung) was greater than 100 µM. The TGI (LOX IMVI melanoma) was greater than 100 µM, the TGI (SN12C renal) was greater than 100 µM and the TGI (SW-620 colon) was greater than 100 µM. The TGI (ACHN renal) was greater than 100 µM, the TGI (SK-MEL-5 melanoma) was greater than 100 µM and the TGI (HT29 colon) was greater than 100 µM. The TGI (SF-268 CNS) was greater than 100 µM, the TGI (U251 CNS) was greater than 100 µM and the TGI (MDA-N) was greater than 100 µM. For the same compound, the TGI (MCF7 breast) was greater than 100 µM, the TGI (COLO 205 colon) was greater than 100 µM and the TGI (OVCAR-8 ovarian) was greater than 100 µM. For the same compound, the TGI (NCI/ADR-RES ovarian) was greater than 100 µM, the TGI (DU-145 prostate) was greater than 100 µM and the TGI (HCC-2998 colon) was greater than 100 µM. It also gave a TGI (SK-OV-3 ovarian) greater than 100 µM, a TGI (A549 NSCLC) greater than 100 µM and a TGI (OVCAR-5 ovarian) greater than 100 µM. The TGI (RPMI-8226 leukemia) was greater than 100 µM, the TGI (SNB-19 CNS) was greater than 100 µM and the TGI (HS 578T breast) was greater than 100 µM. For the same compound, the TGI (CCRF-CEM leukemia) was greater than 100 µM, the TGI (MALME-3M melanoma) was greater than 100 µM and the TGI (CAKI-1 renal) was greater than 100 µM. The TGI (SK-MEL-28 melanoma) was greater than 100 µM, the TGI (K-562 leukemia) was greater than 100 µM and the TGI (SR leukemia) was greater than 100 µM. The TGI (SF-539 CNS) was 65.9 µM, the TGI (A498 renal) was greater than 100 µM and the TGI (HCT-15 colon) was greater than 100 µM. It also gave a TGI (UACC-62 melanoma) greater than 100 µM, a TGI (NCI-H522 lung) greater than 100 µM and a TGI (UO-31 renal) greater than 100 µM. For the same compound, the TGI (MOLT-4 leukemia) was greater than 100 µM, the TGI (HCT-116 colon) was 47.1 µM and the TGI (HL-60(TB) leukemia) was greater than 100 µM. It also gave a TGI (MDA-MB-435) greater than 100 µM, a TGI (IGROV1 ovarian) greater than 100 µM and a TGI (SK-MEL-2 melanoma) greater than 100 µM. The TGI (BT-549 breast) was greater than 100 µM, the TGI (UACC-257 melanoma) was greater than 100 µM and the TGI (PC-3 prostate) was greater than 100 µM. The TGI (HOP-92 NSCLC) was greater than 100 µM, the TGI (TK-10 renal) was greater than 100 µM and the TGI (NCI-H460 lung) was greater than 100 µM. It also gave a TGI (M14 melanoma) greater than 100 µM, a TGI (NCI-H226 lung) of 67.1 µM and a TGI (SF-295 CNS) greater than 100 µM. The TGI (T-47D breast) was greater than 100 µM and the TGI (OVCAR-4 ovarian) was greater than 100 µM.

Source: PubChem BioAssay (NCI)
